The test has as its target OppA (main ectoATPase of M. hominis PG21) (Metamycoplasma hominis, UniProt D1J7T8). Conditions: intact cells of parental strain PG21 (whole-cell ectoATPase activity, other ATPases not excluded); pH 7.5, 37 °C, 4 h, 0-3 mM ATP.

Chain of OppA (main ectoATPase of M. hominis PG21) (D1J7T8 entry or part of it): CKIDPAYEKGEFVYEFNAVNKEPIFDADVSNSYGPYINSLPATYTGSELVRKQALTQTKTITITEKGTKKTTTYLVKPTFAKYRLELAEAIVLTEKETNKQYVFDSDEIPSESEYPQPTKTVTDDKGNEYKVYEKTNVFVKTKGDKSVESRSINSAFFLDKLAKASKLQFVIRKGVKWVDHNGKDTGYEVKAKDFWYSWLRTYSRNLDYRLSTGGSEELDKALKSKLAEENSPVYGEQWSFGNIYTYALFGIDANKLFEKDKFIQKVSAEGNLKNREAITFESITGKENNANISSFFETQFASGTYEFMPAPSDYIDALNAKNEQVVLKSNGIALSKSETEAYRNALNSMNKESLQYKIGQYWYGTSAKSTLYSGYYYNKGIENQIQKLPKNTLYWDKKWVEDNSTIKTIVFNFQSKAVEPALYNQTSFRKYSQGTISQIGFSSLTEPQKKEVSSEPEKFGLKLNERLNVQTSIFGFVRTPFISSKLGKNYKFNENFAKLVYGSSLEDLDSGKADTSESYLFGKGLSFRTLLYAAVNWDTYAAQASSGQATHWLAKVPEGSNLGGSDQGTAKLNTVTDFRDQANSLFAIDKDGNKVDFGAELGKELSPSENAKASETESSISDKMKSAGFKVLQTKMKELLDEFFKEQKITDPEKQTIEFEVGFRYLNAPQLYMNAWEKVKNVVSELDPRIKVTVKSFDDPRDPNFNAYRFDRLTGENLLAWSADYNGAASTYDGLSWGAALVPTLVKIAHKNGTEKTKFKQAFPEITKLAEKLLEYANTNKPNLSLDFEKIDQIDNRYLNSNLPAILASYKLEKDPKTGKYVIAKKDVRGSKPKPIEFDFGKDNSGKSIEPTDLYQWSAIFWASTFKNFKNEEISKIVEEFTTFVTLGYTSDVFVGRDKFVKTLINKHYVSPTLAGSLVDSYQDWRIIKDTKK

Consider `Nc1ncnc2c1ncn2[C@@H]1O[C@H](COP(=O)(O)OP(=O)(O)OP(=O)(O)O)[C@@H](O)[C@H]1O` [ATP], for which the Km entry is “the parental PG21 strain were tested for ATPase activity”.

For the origin of these results see paper PMC6038183 (BMC Genomics, 2018).
